Experimental data: patent publication EP0565593B1, “REDUCING PESTICIDAL INTERACTIONS IN CROPS” (priority 1990, dated 1992)

Key:
[1] = test system: Corn; test: Greenhouse test Procedure II: herbicide, insecticide and antidote incorporated in cover layer (Example 4; Table 4); format: in vivo; conditions: 3 weeks
Method in brief: (§1)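 Herbicide, insecticide and antidote in acetone were track-sprayed sequentially onto a soil cover layer, incorporated and spread over seeded beds in silt loam. Initial overhead irrigation equal to 0.6 cm rainfall, then sub-irrigation in the greenhouse. Injury was rated 3 weeks after treatment against untreated and herbicide-only controls.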

[2] = test system: VELE (velvetleaf); test: Greenhouse test Procedure II (Example 4; Table 4); format: in vivo, Abutilon theophrasti; conditions: 3 weeks
Method in brief: as §1

[3] = test system: Corn; test: Greenhouse test Procedure I with PPI or POE herbicide and foliar insecticide (Example 5; Table 5); format: in vivo
Experimental: (§2) Containers were filled and compacted with a fumigated silt loam top soil to a depth of about 1.3 cm from the top of the container. A first container was designated as an untreated control, a second container was designated as a herbicide control, and a third container was designated as a herbicide + antidote test container. Each of the containers was seeded with a crop species. A measured amount of herbicide dispersed or dissolved in acetone was applied to a measured quantity of soil. To this same quantity of soil treated with herbicide, there was added a measured amount of antidote dispersed or dissolved in acetone. The quantity of soil treated with the herbicide and antidote was thoroughly mixed to incorporate the herbicide and antidote in the soil uniformly. The seed bed in the third container of soil was covered with the soil treated with the herbicide and antidote and the container was leveled. For each test series, the seed beds of the first and second containers were likewise covered by soil layers. the cover layer of the first container was not treated with herbicide or antidote.
(§3) Insecticide application was made as described in the tests in the examples below. The containers were then placed on a bench in a greenhouse and sub-irrigated as required for the duration of the test.
(§4) Said herbicide and antidote were sequentially pipetted onto cover layers, which were spread over the seed beds and subirrigated as in Procedure I and allowed to grow to a height of about 10 cm over a period of 11 days. Herbicide No. 1 and Insecticide No. 2 were then sequentially sprayed on the plant foliage. Observations were made three (3) weeks after initial treatment, 10 days after foliar treatment).

[4] = test system: VELE (velvetleaf); test: as above; format: in vivo, Abutilon theophrasti
Experimental: as §2, §3, §4

[5] = test system: Corn; test: Field trials, PPI, PRE and POE herbicide applications with terbufos (Example 7); format: in vivo; conditions: mean of five locations, soil-applied insecticide prior to planting
From the text: This example summarizes the results of one series of field trials from a plurality of locations and soil types wherein test chemicals were applied in various modes including pre-plant incorporated (PPI), post emergence (POE) and preemergence (PRE) with and without a safener (antidote). Test Chemicals were Herbicide Nos 1, 2, 3 and 7-9; Insecticide No. 1 and Antidote No. 1.
In these trials Insecticide No. 1 (terbufos) was T-banded or furrow applied at labeled rates prior to planting corn. PPI herbicide treatments were applied prior to insecticide applications; PRE treatments were applied after the insecticide application either prior to or after seeding the corn. POE herbicide applications were made at 2 corn-growth stages, i.e., early post (EP) at the 2-3 leaf stage and late post (LP) at the 4-7 leaf stage. Plots were small plot with 3 replications in a randomized complete block design. In the PRE and PPI herbicide treatments, Antidote No. 1 was applied as a tankmix in both treatments. In the POE herbicide treatments, that antidote was applied as a tank mix with the herbicide at the EP and LP stages.

[6] = test system: cotton (COTT); test: Multi-crop greenhouse test, biocide, herbicide and safener applied to soil covers (Examples 65, 66; Tables 64, 65); format: in vivo; set-up: inhibition: dose or concentration left out as unconfirmed; conditions: Gossypium hirsutum, soil; for inhibition at 18 g/ha: Herb. No. 1 0.018 Kg/Ha alone; for inhibition at 70 g/ha: Herb. No. 1 0.07 Kg/Ha alone; for inhibition at 280 g/ha: Herb. No. 1 0.28 Kg/Ha alone
Experimental: Tests according to this invention in various crops indicate widespread application of the invention. In Examples 62-66 below are described tests with a variety of herbicides contacted with COUNTER® 15G in the presence and absence of MON-7400 (Antidote No. 12); MON-13900 (No. 1); MON-4660 (No. 16) and flurazole (No. 16). Those tests were conducted according to Procedures IV or V described above and illustrated further in other foregoing examples. Plants used in all tests were, for crops (as abbreviated in parentheses); cotton (COTT); soybean (SOBE); CORN, grain sorghum (GRSO); wheat (WHEA) and RICE, and the weeds giant foxtail (GIFT) and velvetleaf (VELE). The data in the tables below represent averages of two replications.
In this test the crops and weeds were planted 1.3 cm deep in 13.7 cm X 27.7 cm pans containing Dupo silt loam soil. The test safeners were applied in acetone solution and COUNTER 15G as dry granules to soil cover layers and incorporated by shaking in a bag. Treated cover layers were placed on seeded pans which were transferred to greenhouse benches and subirrigated. Herbicide was applied POE six (6) days after PPI initiation and observations of plant injury made ten (10) days later; results are shown in Table 61. The herbicide used in this example was BEACON (No. 8).
In another test in the several crops and weeds used in this test series, the herbicidal component was MON-12000 (No. 1); the other components were the same. the procedure used in this test was the same as that described in Example 62, modified to use a light overhead irrigation (about 0.32 cm/day) during days 4-7 of the test.
In yet another test in this series, XRD-498 (Herbicide No. 21) was used as the herbicidal component in contact with COUNTER 15G in the presence of the above safeners. The various components of the system (biocide, herbicide and safener) were applied concurrently to soil covers of the seeded plants.

[7] = Insecticide 2 3.36 + Herbicide 1 0.07 kg/Ha
[8] = Insecticide 2 3.36 + Herbicide 1 0.14 kg/Ha
[9] = Herbicide 1 0.07 Kg/Ha POE, 10 days after foliar treatment
[10] = Herbicide 1 0.14 Kg/Ha PPI, 3 weeks
[11] = Herbicide 1 0.28 Kg/Ha POE, 10 days after foliar treatment
[12] = Herbicide 1 0.56 Kg/Ha PPI, 3 weeks
[13] = Herbicide 1 1.12 Kg/Ha POE, 10 days after foliar treatment
[14] = Herbicide 1 2.24 Kg/Ha PPI, 3 weeks
[15] = Insecticide 2 1.68 (foliar) + Herbicide 1 0.14 Kg/Ha PPI, 3 weeks
[16] = Insecticide 2 1.68 (foliar) + Herbicide 1 0.56 Kg/Ha PPI, 3 weeks
[17] = Insecticide 2 1.68 (foliar) + Herbicide 1 2.24 Kg/Ha PPI, 3 weeks
[18] = Insecticide 2 1.68 + Herbicide 1 0.07 Kg/Ha POE, 10 days after foliar treatment
[19] = Insecticide 2 1.68 + Herbicide 1 0.28 Kg/Ha POE, 10 days after foliar treatment

## COC(=O)c1c(Cl)nn(C)c1S(=O)(=O)NC(=O)Nc1nc(OC)cc(OC)n1 [Herbicide No. 1, N-[(4,6-dimethoxypyrimidin-2-yl)aminocarbonyl]-3-chloro-4-methoxycarbonyl-5-sulfonamide, reference compound]
[1]; Herbicide 1 0.07 kg/Ha
  % Injury Corn: 2%
[1]; Herbicide 1 0.14 kg/Ha
  % Injury Corn: 13%
[1]; [7]
  % Injury Corn: 0%
[1]; [8]
  % Injury Corn: 38%
[2]; Herbicide 1 0.07 kg/Ha
  % Injury VELE: 20%
[2]; Herbicide 1 0.14 kg/Ha
  % Injury VELE: 67%
[2]; [7]
  % Injury VELE: 10%
[2]; [8]
  % Injury VELE: 20%
[3]; [9]
  % Injury Corn: 0%
[3]; [10]
  % Injury Corn: 5%
[3]; [11]
  % Injury Corn: 15%
[3]; [12]
  % Injury Corn: 28%
[3]; [13]
  % Injury Corn: 7%
[3]; [14]
  % Injury Corn: 58%
[3]; [15]
  % Injury Corn: 18%
[3]; [16]
  % Injury Corn: 10%
[3]; [17]
  % Injury Corn: 87%
[3]; [18]
  % Injury Corn: 10%
[3]; [19]
  % Injury Corn: 10%
[4]; [9]
  % Injury VELE: 30%
[4]; [10]
  % Injury VELE: 78%
[4]; [11]
  % Injury VELE: 30%
[4]; [12]
  % Injury VELE: 93%
[4]; [13]
  % Injury VELE: 20%
[4]; [14]
  % Injury VELE: 95%
[4]; [15]
  % Injury VELE: 90%
[4]; [16]
  % Injury VELE: 90%
[4]; [17]
  % Injury VELE: 98%
[4]; [18]
  % Injury VELE: 23%
[4]; [19]
  % Injury VELE: 42%
[5]
  interaction with Insecticide No. 1 after POE herbicide: insignificant interaction
[6]; Table 64, Herb. No. 1 0.018 Kg/Ha + Biocide No. 1 8.96 Kg/Ha
  inhibition: 15%
[6]; Table 64
  inhibition at 18 g/ha: 10%
  inhibition at 70 g/ha: 20%
  inhibition at 280 g/ha: 60%
[6]; Table 64, Herb. No. 1 0.07 Kg/Ha + Biocide No. 1 8.96 Kg/Ha
  inhibition: 0%
[6]; Table 64, Herb. No. 1 0.28 Kg/Ha + Biocide No. 1 8.96 Kg/Ha
  inhibition: 55%
[6]; Table 65, Herb. No. 1 0.018 Kg/Ha + Biocide No. 1 8.96 Kg/Ha
  inhibition: 0%
[6]; Table 65
  inhibition at 18 g/ha: 0%
  inhibition at 70 g/ha: 20%
  inhibition at 280 g/ha: 40%
[6]; Table 65, Herb. No. 1 0.07 Kg/Ha + Biocide No. 1 8.96 Kg/Ha
  inhibition: 20%
[6]; Table 65, Herb. No. 1 0.28 Kg/Ha + Biocide No. 1 8.96 Kg/Ha
  inhibition: 75%
